Tests used:
Assay in all cases: Broader kinase panel (PerkinElmer)
Type in all cases: biochemical
ABL1(Y253F) = target: T1, ABL1(Y253F) (Homo sapiens, UniProt P00519, Y253F); conditions: 100 nM; read-out: Average Percent Inhibition
T1 construct: purchased In-house HTRF panel (56 kinases) and PerkinElmer (161-kinase panel)
Text: (§1) […]. […] […].

AKT1 = AKT1 (Homo sapiens, UniProt P31749); conditions: 100 nM; read-out: Average Percent Inhibition
Text: as §1

AMPK = conditions: 100 nM
Text: as §1

AurB = target: T2, AurB (Homo sapiens, UniProt Q96GD4); conditions: 100 nM; read-out: Average Percent Inhibition
T2 construct: purchased In-house HTRF panel (56 kinases) and PerkinElmer (161-kinase panel)
Text: as §1

BMX = target: T3, BMX (Homo sapiens, UniProt P51813); conditions: 100 nM; read-out: Average Percent Inhibition
T3 construct: purchased In-house HTRF panel (56 kinases) and PerkinElmer (161-kinase panel)
Text: as §1

BRSK2 = target: T4, BRSK2 (Homo sapiens, UniProt Q8IWQ3); conditions: 100 nM; read-out: Average Percent Inhibition
T4 construct: purchased In-house HTRF panel (56 kinases) and PerkinElmer (161-kinase panel)
Text: as §1

CDK1/Cycline B1 = target: T5, CDK1/Cycline B1 (Homo sapiens, UniProt P06493); conditions: 100 nM; read-out: Average Percent Inhibition
T5 construct: purchased In-house HTRF panel (56 kinases) and PerkinElmer (161-kinase panel)
Text: as §1

CDK3 = target: T6, CDK3 (Homo sapiens, UniProt Q00526); conditions: 100 nM; read-out: Average Percent Inhibition
T6 construct: purchased In-house HTRF panel (56 kinases) and PerkinElmer (161-kinase panel)
Text: as §1

CK1-epsilon = target: T7, CK1-epsilon (Homo sapiens, UniProt P49674); conditions: 100 nM; read-out: Average Percent Inhibition
T7 construct: purchased In-house HTRF panel (56 kinases) and PerkinElmer (161-kinase panel)
Text: as §1

CK1-gamma 1 = target: T8, CK1-gamma 1 (Homo sapiens, UniProt Q9HCP0); conditions: 100 nM; read-out: Average Percent Inhibition
T8 construct: purchased In-house HTRF panel (56 kinases) and PerkinElmer (161-kinase panel)
Text: as §1

CSNK1A1 = target: T9, CSNK1A1 (Homo sapiens, UniProt P48729); conditions: 100 nM; read-out: Average Percent Inhibition
T9 construct: purchased In-house HTRF panel (56 kinases) and PerkinElmer (161-kinase panel)
Text: as §1

Ca MKII_gamma = target: T10, Ca MKII_gamma (Homo sapiens, UniProt Q13555); conditions: 100 nM; read-out: Average Percent Inhibition
T10 construct: purchased In-house HTRF panel (56 kinases) and PerkinElmer (161-kinase panel)
Text: as §1

DCAMKL2 = target: T11, DCAMKL2 (Homo sapiens, UniProt Q8N568); conditions: 100 nM; read-out: Average Percent Inhibition
T11 construct: purchased In-house HTRF panel (56 kinases) and PerkinElmer (161-kinase panel)
Text: as §1

DYRK1a = target: T12, DYRK1a (Homo sapiens, UniProt Q13627); conditions: 100 nM; read-out: Average Percent Inhibition
T12 construct: purchased In-house HTRF panel (56 kinases) and PerkinElmer (161-kinase panel)
Text: as §1

DYRK3 = target: T13, DYRK3 (Homo sapiens, UniProt O43781); conditions: 100 nM; read-out: Average Percent Inhibition
T13 construct: purchased In-house HTRF panel (56 kinases) and PerkinElmer (161-kinase panel)
Text: as §1

EGFR = EGFR (Homo sapiens, UniProt P00533); conditions: 100 nM; read-out: Average Percent Inhibition
Text: as §1

EGFR(T790M) = target: T14, EGFR(T790M) (Homo sapiens, UniProt P00533, T790M); conditions: 100 nM; read-out: Average Percent Inhibition
T14 construct: purchased In-house HTRF panel (56 kinases) and PerkinElmer (161-kinase panel)
Text: as §1

EPHA1 = target: T15, EPHA1 (Homo sapiens, UniProt P21709); conditions: 100 nM; read-out: Average Percent Inhibition
T15 construct: purchased In-house HTRF panel (56 kinases) and PerkinElmer (161-kinase panel)
Text: as §1

EPHB2 = target: T16, EPHB2 (Homo sapiens, UniProt P29323); conditions: 100 nM; read-out: Average Percent Inhibition
T16 construct: purchased In-house HTRF panel (56 kinases) and PerkinElmer (161-kinase panel)
Text: as §1

EPHB4 = target: T17, EPHB4 (Homo sapiens, UniProt P54760); conditions: 100 nM; read-out: Average Percent Inhibition
T17 construct: purchased In-house HTRF panel (56 kinases) and PerkinElmer (161-kinase panel)
Text: as §1

Erk2 = target: T18, Erk2 (Homo sapiens, UniProt P28482); conditions: 100 nM; read-out: Average Percent Inhibition
T18 construct: purchased In-house HTRF panel (56 kinases) and PerkinElmer (161-kinase panel)
Text: as §1

Fer = target: T19, Fer (Homo sapiens, UniProt P16591); conditions: 100 nM; read-out: Average Percent Inhibition
T19 construct: purchased In-house HTRF panel (56 kinases) and PerkinElmer (161-kinase panel)
Text: as §1

IKBKE (IKK epsilon) = target: T20, IKBKE (IKK epsilon) (Homo sapiens, UniProt Q14164); conditions: 100 nM; read-out: Average Percent Inhibition
T20 construct: purchased In-house HTRF panel (56 kinases) and PerkinElmer (161-kinase panel)
Text: as §1

JAK2 = target: T21, JAK2 (Homo sapiens, UniProt O60674); conditions: 100 nM; read-out: Average Percent Inhibition
T21 construct: purchased In-house HTRF panel (56 kinases) and PerkinElmer (161-kinase panel)
Text: as §1

LOK = LOK (Homo sapiens, UniProt O94804); conditions: 100 nM; read-out: Average Percent Inhibition
Text: as §1

LYN = target: T22, LYN (Homo sapiens, UniProt P07948); conditions: 100 nM; read-out: Average Percent Inhibition
T22 construct: purchased In-house HTRF panel (56 kinases) and PerkinElmer (161-kinase panel)
Text: as §1

MAPKAPK2 = MAPKAPK2 (Homo sapiens, UniProt P49137); conditions: 100 nM; read-out: Average Percent Inhibition
Text: as §1

MET = target: T23, MET (Homo sapiens, UniProt P08581); conditions: 100 nM; read-out: Average Percent Inhibition
T23 construct: purchased In-house HTRF panel (56 kinases) and PerkinElmer (161-kinase panel)
Text: as §1

Mer = target: T24, Mer (Homo sapiens, UniProt Q12866); conditions: 100 nM; read-out: Average Percent Inhibition
T24 construct: purchased In-house HTRF panel (56 kinases) and PerkinElmer (161-kinase panel)
Text: as §1

NuaK1 = target: T25, NuaK1 (Homo sapiens, UniProt O60285); conditions: 100 nM; read-out: Average Percent Inhibition
T25 construct: purchased In-house HTRF panel (56 kinases) and PerkinElmer (161-kinase panel)
Text: as §1

PDGFR BETA = target: T26, PDGFR BETA (Homo sapiens, UniProt P09619); conditions: 100 nM; read-out: Average Percent Inhibition
T26 construct: purchased In-house HTRF panel (56 kinases) and PerkinElmer (161-kinase panel)
Text: as §1

PDGFR_alpha = target: T27, PDGFR_alpha (Homo sapiens, UniProt P16234); conditions: 100 nM; read-out: Average Percent Inhibition
T27 construct: purchased In-house HTRF panel (56 kinases) and PerkinElmer (161-kinase panel)
Text: as §1

PIM2 = target: T28, PIM2 (Homo sapiens, UniProt Q9P1W9); conditions: 100 nM; read-out: Average Percent Inhibition
T28 construct: purchased In-house HTRF panel (56 kinases) and PerkinElmer (161-kinase panel)
Text: as §1

PKC-epsilon = target: T29, PKC-epsilon (Homo sapiens, UniProt Q02156); conditions: 100 nM; read-out: Average Percent Inhibition
T29 construct: purchased In-house HTRF panel (56 kinases) and PerkinElmer (161-kinase panel)
Text: as §1

PKG1-beta = target: T30, PKG1-beta (Homo sapiens, UniProt Q13976); conditions: 100 nM; read-out: Average Percent Inhibition
T30 construct: purchased In-house HTRF panel (56 kinases) and PerkinElmer (161-kinase panel)
Text: as §1

RET Y791F = target: T31, RET Y791F (Homo sapiens, UniProt P07949, Y791F); conditions: 100 nM; read-out: Average Percent Inhibition
T31 construct: purchased In-house HTRF panel (56 kinases) and PerkinElmer (161-kinase panel)
Text: as §1

ROCK1 = ROCK1 (Homo sapiens, UniProt Q13464); conditions: 100 nM; read-out: Average Percent Inhibition
Text: as §1

RSK4 = target: T32, RSK4 (Homo sapiens, UniProt Q9UK32); conditions: 100 nM; read-out: Average Percent Inhibition
T32 construct: purchased In-house HTRF panel (56 kinases) and PerkinElmer (161-kinase panel)
Text: as §1

SGK1 = target: T33, SGK1 (Homo sapiens, UniProt O00141); conditions: 100 nM; read-out: Average Percent Inhibition
T33 construct: purchased In-house HTRF panel (56 kinases) and PerkinElmer (161-kinase panel)
Text: as §1

TEC = target: T34, TEC (Homo sapiens, UniProt P42680); conditions: 100 nM; read-out: Average Percent Inhibition
T34 construct: purchased In-house HTRF panel (56 kinases) and PerkinElmer (161-kinase panel)
Text: as §1

TSSK1 = target: T35, TSSK1 (Homo sapiens, UniProt Q9BXA7); conditions: 100 nM; read-out: Average Percent Inhibition
T35 construct: purchased In-house HTRF panel (56 kinases) and PerkinElmer (161-kinase panel)
Text: as §1

TSSK2 = target: T36, TSSK2 (Homo sapiens, UniProt Q96PF2); conditions: 100 nM; read-out: Average Percent Inhibition
T36 construct: purchased In-house HTRF panel (56 kinases) and PerkinElmer (161-kinase panel)
Text: as §1

TXK = target: T37, TXK (Homo sapiens, UniProt P42681); conditions: 100 nM; read-out: Average Percent Inhibition
T37 construct: purchased In-house HTRF panel (56 kinases) and PerkinElmer (161-kinase panel)
Text: as §1

T23 sequence (P08581 25-1390): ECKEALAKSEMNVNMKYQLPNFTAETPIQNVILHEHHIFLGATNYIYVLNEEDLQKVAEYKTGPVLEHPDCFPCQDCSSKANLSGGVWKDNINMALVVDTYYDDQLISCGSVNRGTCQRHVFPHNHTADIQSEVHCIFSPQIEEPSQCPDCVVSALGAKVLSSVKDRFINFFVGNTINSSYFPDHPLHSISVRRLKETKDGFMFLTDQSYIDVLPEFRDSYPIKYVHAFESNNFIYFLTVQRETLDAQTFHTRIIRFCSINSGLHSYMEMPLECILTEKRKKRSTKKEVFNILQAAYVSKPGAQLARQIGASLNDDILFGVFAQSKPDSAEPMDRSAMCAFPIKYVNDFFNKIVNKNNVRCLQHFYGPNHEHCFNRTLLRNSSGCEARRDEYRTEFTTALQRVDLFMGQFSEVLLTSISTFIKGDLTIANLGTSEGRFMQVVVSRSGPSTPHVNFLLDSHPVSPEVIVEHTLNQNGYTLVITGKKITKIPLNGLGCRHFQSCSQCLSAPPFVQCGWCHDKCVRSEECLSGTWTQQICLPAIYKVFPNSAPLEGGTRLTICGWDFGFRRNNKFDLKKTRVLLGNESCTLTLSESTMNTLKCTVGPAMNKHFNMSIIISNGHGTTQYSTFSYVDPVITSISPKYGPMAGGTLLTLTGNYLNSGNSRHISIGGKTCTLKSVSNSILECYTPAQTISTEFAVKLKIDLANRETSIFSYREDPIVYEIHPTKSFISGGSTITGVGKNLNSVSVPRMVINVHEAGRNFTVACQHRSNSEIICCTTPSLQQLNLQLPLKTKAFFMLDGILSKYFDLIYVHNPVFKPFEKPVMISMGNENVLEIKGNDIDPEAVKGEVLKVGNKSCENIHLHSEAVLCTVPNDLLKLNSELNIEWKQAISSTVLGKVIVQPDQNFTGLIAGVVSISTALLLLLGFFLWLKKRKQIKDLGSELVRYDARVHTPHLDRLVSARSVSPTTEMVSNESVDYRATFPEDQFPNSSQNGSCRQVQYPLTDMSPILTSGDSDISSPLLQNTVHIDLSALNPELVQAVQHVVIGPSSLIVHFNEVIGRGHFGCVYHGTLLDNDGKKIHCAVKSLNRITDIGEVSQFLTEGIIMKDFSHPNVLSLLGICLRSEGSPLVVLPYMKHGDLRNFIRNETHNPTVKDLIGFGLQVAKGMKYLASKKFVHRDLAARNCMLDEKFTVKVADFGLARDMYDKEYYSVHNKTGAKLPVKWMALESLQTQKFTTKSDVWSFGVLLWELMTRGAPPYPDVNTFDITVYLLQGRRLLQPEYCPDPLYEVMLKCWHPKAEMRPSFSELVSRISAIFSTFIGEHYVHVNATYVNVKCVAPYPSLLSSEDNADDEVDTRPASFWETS
T27 sequence (P16234 24-1089): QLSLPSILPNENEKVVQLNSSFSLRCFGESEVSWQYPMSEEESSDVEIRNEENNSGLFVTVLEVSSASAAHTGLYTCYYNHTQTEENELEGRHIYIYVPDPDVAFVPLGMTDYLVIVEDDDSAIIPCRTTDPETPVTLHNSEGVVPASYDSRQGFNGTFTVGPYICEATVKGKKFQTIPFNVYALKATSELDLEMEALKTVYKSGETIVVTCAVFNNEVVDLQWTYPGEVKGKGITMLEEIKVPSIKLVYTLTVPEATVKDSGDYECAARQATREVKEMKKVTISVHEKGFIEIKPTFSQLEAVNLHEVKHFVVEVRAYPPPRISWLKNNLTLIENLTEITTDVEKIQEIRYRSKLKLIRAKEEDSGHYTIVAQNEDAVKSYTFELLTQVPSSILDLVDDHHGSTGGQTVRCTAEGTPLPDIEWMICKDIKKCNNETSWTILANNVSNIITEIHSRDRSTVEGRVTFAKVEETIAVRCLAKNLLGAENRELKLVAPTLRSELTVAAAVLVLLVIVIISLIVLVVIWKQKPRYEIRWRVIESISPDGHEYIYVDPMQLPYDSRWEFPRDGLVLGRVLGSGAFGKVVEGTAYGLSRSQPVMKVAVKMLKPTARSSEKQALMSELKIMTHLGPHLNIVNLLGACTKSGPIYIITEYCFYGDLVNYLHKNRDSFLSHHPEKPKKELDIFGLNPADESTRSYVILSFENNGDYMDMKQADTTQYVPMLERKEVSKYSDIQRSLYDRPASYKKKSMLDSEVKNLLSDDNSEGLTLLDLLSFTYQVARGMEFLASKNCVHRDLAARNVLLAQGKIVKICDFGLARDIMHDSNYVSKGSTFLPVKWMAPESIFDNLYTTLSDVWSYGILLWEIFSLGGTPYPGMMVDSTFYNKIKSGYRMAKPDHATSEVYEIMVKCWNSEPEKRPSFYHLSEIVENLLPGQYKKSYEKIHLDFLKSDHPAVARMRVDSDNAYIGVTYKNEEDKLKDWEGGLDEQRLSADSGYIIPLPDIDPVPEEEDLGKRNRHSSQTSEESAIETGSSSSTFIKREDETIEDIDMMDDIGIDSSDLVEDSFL
T29 sequence (Q02156 whole entry): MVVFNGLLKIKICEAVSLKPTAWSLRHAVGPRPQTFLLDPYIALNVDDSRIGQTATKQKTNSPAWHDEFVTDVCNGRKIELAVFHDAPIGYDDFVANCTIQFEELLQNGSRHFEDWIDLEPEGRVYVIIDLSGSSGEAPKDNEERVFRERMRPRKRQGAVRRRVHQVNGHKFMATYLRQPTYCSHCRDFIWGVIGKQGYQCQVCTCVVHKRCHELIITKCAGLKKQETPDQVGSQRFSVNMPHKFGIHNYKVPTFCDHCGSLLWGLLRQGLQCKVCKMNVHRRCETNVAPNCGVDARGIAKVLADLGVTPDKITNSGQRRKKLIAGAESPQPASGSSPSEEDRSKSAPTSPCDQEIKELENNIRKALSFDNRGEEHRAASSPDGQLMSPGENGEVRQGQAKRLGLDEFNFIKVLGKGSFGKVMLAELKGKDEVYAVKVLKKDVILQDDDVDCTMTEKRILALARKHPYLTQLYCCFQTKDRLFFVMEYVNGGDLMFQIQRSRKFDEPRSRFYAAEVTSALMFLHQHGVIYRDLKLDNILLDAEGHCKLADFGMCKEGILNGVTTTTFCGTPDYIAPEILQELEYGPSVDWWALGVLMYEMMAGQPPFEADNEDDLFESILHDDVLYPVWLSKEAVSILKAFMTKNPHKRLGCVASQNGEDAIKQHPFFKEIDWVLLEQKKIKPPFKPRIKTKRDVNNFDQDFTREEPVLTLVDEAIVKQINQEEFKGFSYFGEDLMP
T4 sequence (Q8IWQ3 whole entry): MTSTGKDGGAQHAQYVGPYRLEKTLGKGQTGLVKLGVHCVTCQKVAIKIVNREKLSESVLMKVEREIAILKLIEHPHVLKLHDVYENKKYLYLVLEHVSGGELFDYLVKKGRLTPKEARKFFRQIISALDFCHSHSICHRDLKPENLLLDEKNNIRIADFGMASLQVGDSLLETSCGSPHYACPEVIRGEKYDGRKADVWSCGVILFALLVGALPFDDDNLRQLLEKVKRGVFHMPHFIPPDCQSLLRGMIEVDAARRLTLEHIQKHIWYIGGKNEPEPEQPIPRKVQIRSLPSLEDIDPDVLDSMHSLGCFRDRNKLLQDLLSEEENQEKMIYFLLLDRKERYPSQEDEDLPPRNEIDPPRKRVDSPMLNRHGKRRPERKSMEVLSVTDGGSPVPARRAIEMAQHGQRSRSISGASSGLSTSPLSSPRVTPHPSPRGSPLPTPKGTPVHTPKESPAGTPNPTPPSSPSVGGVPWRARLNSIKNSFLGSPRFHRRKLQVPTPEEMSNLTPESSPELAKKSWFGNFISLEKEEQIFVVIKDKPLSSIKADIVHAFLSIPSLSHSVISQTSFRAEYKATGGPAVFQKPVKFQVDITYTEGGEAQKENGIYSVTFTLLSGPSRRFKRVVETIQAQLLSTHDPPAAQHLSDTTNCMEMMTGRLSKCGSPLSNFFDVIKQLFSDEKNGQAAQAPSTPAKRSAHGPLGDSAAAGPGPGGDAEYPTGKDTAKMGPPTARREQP
T15 sequence (P21709 26-976): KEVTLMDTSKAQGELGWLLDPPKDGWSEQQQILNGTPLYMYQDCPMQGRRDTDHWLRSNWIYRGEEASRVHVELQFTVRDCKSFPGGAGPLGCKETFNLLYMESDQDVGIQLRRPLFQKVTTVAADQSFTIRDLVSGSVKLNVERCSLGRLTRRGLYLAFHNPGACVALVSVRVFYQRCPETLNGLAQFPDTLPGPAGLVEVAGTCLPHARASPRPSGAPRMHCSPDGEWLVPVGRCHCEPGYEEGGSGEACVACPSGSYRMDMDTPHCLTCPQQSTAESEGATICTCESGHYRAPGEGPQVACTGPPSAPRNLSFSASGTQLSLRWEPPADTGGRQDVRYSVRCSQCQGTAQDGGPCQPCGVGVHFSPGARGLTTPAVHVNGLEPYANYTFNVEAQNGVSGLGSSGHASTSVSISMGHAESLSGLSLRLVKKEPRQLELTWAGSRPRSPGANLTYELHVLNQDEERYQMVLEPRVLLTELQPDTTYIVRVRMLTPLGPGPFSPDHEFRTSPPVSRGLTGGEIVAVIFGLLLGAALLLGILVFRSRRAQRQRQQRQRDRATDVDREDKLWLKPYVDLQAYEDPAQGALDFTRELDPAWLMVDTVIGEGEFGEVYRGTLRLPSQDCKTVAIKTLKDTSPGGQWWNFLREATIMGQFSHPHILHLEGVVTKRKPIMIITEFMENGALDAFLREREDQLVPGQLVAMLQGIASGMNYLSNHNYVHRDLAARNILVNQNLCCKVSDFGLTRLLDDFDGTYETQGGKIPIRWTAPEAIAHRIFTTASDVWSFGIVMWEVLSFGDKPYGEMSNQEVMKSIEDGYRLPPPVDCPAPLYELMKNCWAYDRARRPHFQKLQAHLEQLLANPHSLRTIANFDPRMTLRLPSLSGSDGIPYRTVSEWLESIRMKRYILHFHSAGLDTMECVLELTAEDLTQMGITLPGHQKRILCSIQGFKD

Question: With `CCN1C(=O)N(c2c(F)c(OC)cc(OC)c2F)Cc2cnc3[nH]c(CN4CCOCC4)cc3c21` [INCB054828, pemigatinib] as the molecule, how does the inhibition at 0.1 µM (ABL1(Y253F)) read?
Answer: 2%

Question: And the inhibition at 0.1 µM (AKT1)?
Answer: 2%

Question: What about the “Average Percent Inhibition” value (AMPK) of the same molecule?
Answer: 4%

Question: And the inhibition at 0.1 µM (AurB)?
Answer: 11%

Question: And the inhibition at 0.1 µM (BMX)?
Answer: 3%

Question: What about the inhibition at 0.1 µM (BRSK2) of the same molecule?
Answer: -2%

Question: And the inhibition at 0.1 µM (CDK1/Cycline B1)?
Answer: 5%

Question: What about the inhibition at 0.1 µM (CDK3) of the same molecule?
Answer: 11%

Question: And the inhibition at 0.1 µM (CK1-epsilon)?
Answer: -1%

Question: And the inhibition at 0.1 µM (CK1-gamma 1)?
Answer: -3%

Question: What about the inhibition at 0.1 µM (CSNK1A1) of the same molecule?
Answer: -1%

Question: What about the inhibition at 0.1 µM (Ca MKII_gamma) of the same molecule?
Answer: -9%

Question: And the inhibition at 0.1 µM (DCAMKL2)?
Answer: 3%

Question: What about the inhibition at 0.1 µM (DYRK1a) of the same molecule?
Answer: -2%

Question: What about the inhibition at 0.1 µM (DYRK3) of the same molecule?
Answer: 0%

Question: And the inhibition at 0.1 µM (EGFR)?
Answer: 23%

Question: What about the inhibition at 0.1 µM (EGFR(T790M)) of the same molecule?
Answer: -1%

Question: What about the inhibition at 0.1 µM (EPHA1) of the same molecule?
Answer: 2%

Question: What about the inhibition at 0.1 µM (EPHB2) of the same molecule?
Answer: 3%

Question: And the inhibition at 0.1 µM (EPHB4)?
Answer: 4%

Question: What about the inhibition at 0.1 µM (Erk2) of the same molecule?
Answer: 3%

Question: What about the inhibition at 0.1 µM (Fer) of the same molecule?
Answer: 17%

Question: And the inhibition at 0.1 µM (IKBKE (IKK epsilon))?
Answer: -2%

Question: And the inhibition at 0.1 µM (JAK2)?
Answer: 8%

Question: What about the inhibition at 0.1 µM (LOK) of the same molecule?
Answer: -1%

Question: What about the inhibition at 0.1 µM (LYN) of the same molecule?
Answer: 14%

Question: And the inhibition at 0.1 µM (MAPKAPK2)?
Answer: 0%

Question: And the inhibition at 0.1 µM (MET)?
Answer: -2%

Question: What about the inhibition at 0.1 µM (Mer) of the same molecule?
Answer: -1%

Question: And the inhibition at 0.1 µM (NuaK1)?
Answer: -3%

Question: And the inhibition at 0.1 µM (PDGFR BETA)?
Answer: 6%

Question: And the inhibition at 0.1 µM (PDGFR_alpha)?
Answer: -4%

Question: What about the inhibition at 0.1 µM (PIM2) of the same molecule?
Answer: -5%

Question: What about the inhibition at 0.1 µM (PKC-epsilon) of the same molecule?
Answer: 1%

Question: What about the inhibition at 0.1 µM (PKG1-beta) of the same molecule?
Answer: -2%

Question: And the inhibition at 0.1 µM (RET Y791F)?
Answer: 6%

Question: And the inhibition at 0.1 µM (ROCK1)?
Answer: -3%

Question: And the inhibition at 0.1 µM (RSK4)?
Answer: -1%

Question: What about the inhibition at 0.1 µM (SGK1) of the same molecule?
Answer: 1%

Question: And the inhibition at 0.1 µM (TEC)?
Answer: 19%

Question: What about the inhibition at 0.1 µM (TSSK1) of the same molecule?
Answer: -3%

Question: And the inhibition at 0.1 µM (TSSK2)?
Answer: -3%

Question: What about the inhibition at 0.1 µM (TXK) of the same molecule?
Answer: -7%
